system: HEK293; assay: Cytotoxicity against HEK293 cells assessed as reduction in cell viability at 100 uM measured after 24 hrs by alamar blue assay relative to control; assay type: toxicity, cell-based; details: human, hek293, 24 h

SMILES	Activity
CC(C)(C)Nc1c(-c2ccc(-c3ccccc3)cc2)nc2sccn12	~ 85%

system: not listed separately; assay: Cytotoxicity against HEK293 cells assessed as cell viability at 10 to 100 uM measured after 24 hrs by alamar blue assay relative to control; assay type: toxicity, cell-based; details: human, dose 10-100 µM, read-out: Activity

SMILES	viability at 24 h, up to 100 µM [%]
COc1ccc(-c2nc3sccn3c2NC(C)(C)C)cc1O	100

molecular target: T1, Indoleamine 2,3-dioxygenase 1 (Homo sapiens, UniProt P14902); assay: Inhibition of human IDO1 using L-tryptophan as substrate assessed as reduction in N-formyl kynurenine formation by UV-visible spectroscopic analysis; details: not given
Target sequence in this assay (P14902 whole entry): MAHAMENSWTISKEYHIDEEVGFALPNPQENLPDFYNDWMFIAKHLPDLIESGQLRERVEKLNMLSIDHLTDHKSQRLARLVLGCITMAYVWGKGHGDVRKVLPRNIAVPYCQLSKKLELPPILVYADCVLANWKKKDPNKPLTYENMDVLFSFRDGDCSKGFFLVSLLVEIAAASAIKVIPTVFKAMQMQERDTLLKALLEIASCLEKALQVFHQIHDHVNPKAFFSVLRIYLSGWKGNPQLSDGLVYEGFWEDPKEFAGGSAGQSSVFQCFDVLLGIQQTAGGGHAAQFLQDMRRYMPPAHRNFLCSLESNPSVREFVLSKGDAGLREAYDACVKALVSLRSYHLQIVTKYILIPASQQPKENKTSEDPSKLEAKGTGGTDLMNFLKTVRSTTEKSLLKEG

SMILES	IC50 [µM]
COc1ccc(-c2nc3sccn3c2NC(C)(C)CC(C)(C)C)cc1O	25
CC(C)(C)Nc1c(-c2ccc(-c3ccccc3)cc2)nc2sccn12	23
COc1cccc(-c2nc3sccn3c2NC(C)(C)C)c1	281
COc1ccc(-c2nc3cc(C)ccn3c2NC(C)(C)C)cc1O	287
CC(C)(C)CC(C)(C)Nc1c(-c2ccccc2)nc2sccn12	465
COc1ccc(-c2nc3sccn3c2NC(C)(C)C)cc1O	13
CC(C)(C)CC(C)(C)Nc1c(-c2ccncc2)nc2sccn12	691
CC(C)(C)Nc1c(-c2ccc(C(F)(F)F)cc2)nc2sccn12	1290
CC(C)(C)Nc1c(-c2ccccc2)nc2sccn12	43
O[C@H](c1c(C2CC2)c(Cl)cc2cncn12)C1CC2CCC1CC2 (stereo partly specified)	0.0096
CC(C)(C)CC(C)(C)Nc1c(-c2cccc(C#N)c2)nc2sccn12	477
O=S(=O)(Nc1cccc2cnccc12)c1ccc2c(c1)OCCO2	0.056
c1ccc(-c2ccc(-c3nc4sccn4c3NCCN3CCOCC3)cc2)cc1	106
O=C(Cc1ccccc1)Nc1ccc(CCOc2ccccc2-c2cnc[nH]2)cc1	0.028
Cc1n[nH]c2c1[C@@H](c1ccc(F)c(F)c1)c1c(N)n[nH]c1O2	0.151
CC(C)(C)Nc1c(-c2ccncc2)nc2sccn12	908
COc1ccc(-c2nc3sccn3c2NCCN2CCOCC2)cc1O	73
CC(C)(C)CC(C)(C)Nc1c(-c2ccc(-c3ccccc3)cc2)nc2sccn12	47
CC(C)(C)CC(C)(C)Nc1c(-c2ccc(C(F)(F)F)cc2)nc2sccn12	1020
CC(C)(C)Nc1c(-c2ccc3c(c2)OCO3)nc2sccn12	1450

system: not listed separately; assay: Cytotoxicity against HEK293 cells assessed as cell viability at 10 to 50 uM measured after 24 hrs by alamar blue assay relative to control; assay type: toxicity, cell-based; details: human, dose 10-50 µM, read-out: Activity

SMILES	viability at 24 h, up to 50 µM [%]
CC(C)(C)Nc1c(-c2ccc(-c3ccccc3)cc2)nc2sccn12	100

molecular target: T1, Indoleamine 2,3-dioxygenase 1; assay: Inhibition of human IDO1 using L-tryptophan as substrate assessed as reduction in N-formyl kynurenine formation at 200 uM by UV-visible spectroscopic analysis relative to control; details: not given
Target sequence in this assay (P14902 whole entry, looked up): as the sequence (P14902 whole entry) above

SMILES	inhibition [%]
C[C@H]1c2[nH]c3ccccc3c2C[C@]2(C)C(=O)N(C)C(=S)N12	29

molecular target: T1, Indoleamine 2,3-dioxygenase 1; assay: Inhibition of human IDO1 using L-tryptophan as substrate assessed as reduction in N-formyl kynurenine formation by measuring inhibition constant by UV-visible spectroscopic analysis; details: not given
Target sequence in this assay (P14902 whole entry): as above

SMILES	Ki [µM]
CCNCCc1c[nH]c2c1C(=O)C(c1cccnc1)=CC2=O	0.16

molecular target: T1, Indoleamine 2,3-dioxygenase 1; details: dose 1.0 mM
Target sequence in this assay (P14902 whole entry, looked up): as the sequence (P14902 whole entry) above

SMILES	inhibition [%]
c1ccc2c(c1)[nH]c1cnccc12	17

— ChEMBL document CHEMBL5390252, “Imidazo[2,1-b]thiazole based indoleamine-2,3-dioxygenase 1 (IDO1) inhibitor: Structure based design, synthesis, bio-evaluation and docking studies” (Bioorg Med Chem Lett, 2023)
